Structures are written as SMILES. Where only a bound is given, the exact number is not on record here.

What is called solubility is the dissolved amount per volume that the medium holds.

Data set [1] is described as follows: Physical chemical characteristics: solubility in water and organic solvents.
Data set [2] has as its system E. Coli ATCC.35218. In words: Antibacterial activity, diffusion method in agar-germs (2.a). The format is cell-based. Here is the method:
(§1) In a Tryprone Soy Agar diffusion medium ATCC (American Type Culture Collection) standard bacterial strains are inoculated, preparing a final solution of 10^6 cfu/g (colony forming unities) of the following strains:
(§2) Every plate contains 20 ml of a medium where 2 equidistant wells having a standard diameter are Formed and in each of these wells […] of the above described bacterial solution are inoculated. 2 plates are prepared for every couple of compounds to be tested at different concentrations, and For every strain, and each of these plates is compared with a white (sterile demineralized water inoculum). After the inoculum, the plates are placed in the refrigerator to favour diffusion and temporaneously blocking bacterial growth.
(§3) The compounds hexadecyltrimethylammonium traumatate and benzyldimethylhexadecylammonium traumatare respectively versus hexadecyl trimethylammonium bromide and benzyldimethylhexadecylammonium chloride are solubilized in demineralized water to Form solutions at the concentrations: 0.1; 0.5; and 1%.
(§4) The antibacterial effect is evaluated by measuring bacterial diffusion halo around the well vs white (halo absence).

Data set [3] deals with PS Maltophila ATCC.13637. The description is as above. The format is cell-based. Here is the method:
as §1, §2, §3, §4

Data set [4] deals with Pseudomonas Aeruginosa ATCC.35422. The data set is described as above. The format is cell-based. As to the method: as §1, §2, §3, §4
Data set [5] concerns Aspergillus Niger ATCC 16404. Described as above. The format is cell-based. Also on record: unit not given here. Here is the method:
as §1, §2, §3, §4

Data set [6] relates to Candida Albicans ATCC.10231. Described as above. The format is cell-based. Also noted: unit not given here. As to the method: as §1, §2, §3, §4
For data set [7], the system named is PS Cepacia ATCC.25416. Described as above. The format is cell-based. Also on record: unit not given here. As to the method:
as §1, §2, §3, §4

Data set [8] concerns Stafilococcus Aureus ATCC.65380. The description is as above. It counts as cell-based. Also noted: unit not given here. Here is the method: as §1, §2, §3, §4
Data set [9] deals with Stafilococcus Epidermidis ATCC.14990. The data set is described as above. It counts as cell-based. Also on record: unit not given here. Here is the method:
as §1, §2, §3, §4

Data set [10] concerns Streptococcus Fecalis ATCC.291212. The data set is described as above. It counts as cell-based. Also on record: unit not given here. As to the method: as §1, §2, §3, §4
Data set [11] concerns 3T3 fibroblasts. In words: Cellular proliferation of 3T3 fibroblasts, neutral red colorimetry (1.1a). The format is cell-based, Mice. As to the method: Experiments on 3T3 fibroblasts
Mice 3T3 fibroblasts cultures sown at a 40.000/ml concentration on plates having 6 wells in a DMEM culture medium enriched with 10% calf serum are used. After 24 hours culture, the 90 prepared wells are divided in order to allow the analyses of the compounds of the invention, every compound to be tested being used respectively at a concentration of 0.1, 1 and 10 μg/ml by subsequent evaluations after 48 and 72 hours of incubation.
Hexadecyltrimethylammoniun (ETA) traumatare: solubilized in water and brought to the desired final concentrations of 0.1. 1 and 10 μg/ml by progressive dilutions;
Ethanolamine traumatate: solubilized in water and brought to the final concentrations of 0.1, 1 and 10 μg/ml by progressive dilutions;
Traumatic acid: neutralized with sodium hydroxyde and solubilized in water, then brought to the final concentrations of 0.1, 1 and 10 μg/ml by progressive dilutions with the culture medium.
The compounds are added to the cells after 24 hours culture. The cells number is measured by colorimetry with the neutral red intravital stain after 24, 48, 72 hours of incubation.

On to `Clc1ccc(COC(C[n+]2cc[nH]c2)c2ccc(Cl)cc2Cl)c(Cl)c1.Clc1ccc(COC(C[n+]2cc[nH]c2)c2ccc(Cl)cc2Cl)c(Cl)c1.O=C([O-])/C=C/CCCCCCCCC(=O)[O-]` (racemic) [miconazole trans-traumatate], for which the organic solvent solubility in data set [1] (in ethanol) is above 10000 µg/mL. The compound also displayed a solubility in water in data set [1] (water) above 10000 µg/mL.

On to `CCCCCCCCCCCCCCCC[N+](C)(C)Cc1ccccc1.[Cl-]` [BMA Chloride, benzyldimethylhexadecylammonium chloride, reference compound], for which the bacterial diffusion halo result in [2] (sol. 0.1%) is given as “n.h”; in data set [2] (sol. 0.5%), “n.h”; in data set [2] (sol. 1%) it was 13; in [3] (sol. 0.1%), “n.h”; in [3] (sol. 0.5%), “n.h”; in data set [3] (sol. 1%), 15. Moreover, the bacterial diffusion halo entry is given as “n.h” in data set [4] (sol. 0.1%); 12 in data set [4] (sol. 0.5%); 14 in data set [4] (sol. 1%); 13 in data set [5] (sol. 0.1%); 16 in data set [5] (sol. 0.5%); 19 in data set [5] (sol. 1%). For the same compound, the bacterial diffusion halo in data set [6] (sol. 0.1%) was 13; in [6] (sol. 0.5%), 15; in [6] (sol. 1%), 16; in [7] (sol. 0.1%), 12; in data set [7] (sol. 0.5%), 15; in data set [7] (sol. 1%), 15. Moreover, the bacterial diffusion halo in data set [8] (sol. 0.1%) was found to be 17; in [8] (sol. 0.5%), 22; in data set [8] (sol. 1%), 22; in data set [9] (sol. 0.1%), 15; in data set [9] (sol. 0.5%), 18; in [9] (sol. 1%) it was 19. Further, the values for the bacterial diffusion halo in [10] (sol. 0.1%), in [10] (sol. 0.5%) and in data set [10] (sol. 1%) were 12, 14 and 15, respectively.

For `CCCCCCCCCCCCCCCC[N+](C)(C)C.[Br-]` [ETA Bromide, hexadecyltrimethylammonium bromide, reference compound], the bacterial diffusion halo entry is “n.h” in [2] (sol. 0.1%); 13 in data set [2] (sol. 0.5%); 15 in data set [2] (sol. 1%); “n.h” in data set [3] (sol. 0.1%); 15 in data set [3] (sol. 0.5%); 21 in [3] (sol. 1%). Also, the bacterial diffusion halo entry in data set [4] (sol. 0.1%) is “n.h”; in data set [4] (sol. 0.5%), “n.h”; in [4] (sol. 1%), “n.h”; in data set [5] (sol. 0.1%), 19; in data set [5] (sol. 0.5%), 22; in data set [5] (sol. 1%), 22. Further, the bacterial diffusion halo in data set [6] (sol. 0.1%) worked out at 19; in data set [6] (sol. 0.5%), 24; in data set [6] (sol. 1%), 25; in [7] (sol. 0.1%), 18; in [7] (sol. 0.5%), 19; in data set [7] (sol. 1%) it was 22. For the same compound, the bacterial diffusion halo is 21 in data set [8] (sol. 0.1%); 24 in [8] (sol. 0.5%); 24 in [8] (sol. 1%); 20 in data set [9] (sol. 0.1%); 22 in data set [9] (sol. 0.5%); 22 in data set [9] (sol. 1%). Also, the figures for the bacterial diffusion halo in data set [10] (sol. 0.1%), in data set [10] (sol. 0.5%) and in [10] (sol. 1%) were 20, 22 and 22, respectively.

For the compound `NCCO.O=C(O)/C=C/CCCCCCCCC(=O)O` [ethanolamine traumatate, ethanolamine trans-traumatate], the “effect on cells proliferation” value in data set [11] (0.1 μg/ml, in words) is listed as “able to affect cells proliferation according to a not statistically significant trend”. Further, the “effect on cellular proliferation” value in data set [11] (1 μg/ml, in words, ETA salt > ethanolamine salt = traumatic acid) is reported as “able to increase cellular proliferation”. The “cells numeration (colorimetric, neutral red)” value in [11] (24 hours of incubation, 0.1 (head: μg/ml), control 0.579 ± 0.021) came to 0.562 ± 0.013; in data set [11] (24 hours of incubation, 1.0 (head: μg/ml), control 0.579 ± 0.021), 0.609 ± 0.033; in [11] (24 hours of incubation, 10.0 (head: μg/ml), control 0.579 ± 0.021), 0.553 ± 0.027; in data set [11] (48 hours of incubation, 0.1 (head: μg/ml), control 1.334 ± 0.050) it was 1.415 ± 0.106; in data set [11] (48 hours of incubation, 1.0 (head: μg/ml), control 1.334 ± 0.050), 1.435 ± 0.082; in data set [11] (48 hours of incubation, 10.0 (head: μg/ml), control 1.334 ± 0.050, ** p < 0.01 significant reduction) it was 1.415 ± 0.132. In addition, the “cells numeration (colorimetric, neutral red)” value in data set [11] (72 hours of incubation, 0.1 (head: μg/ml), control 2.360 ± 0.125) came out at 2.382 ± 0.039; in [11] (72 hours of incubation, 1.0 (head: μg/ml), control 2.360 ± 0.125) it was 2.463 ± 0.100; in data set [11] (72 hours of incubation, 10.0 (head: μg/ml), control 2.360 ± 0.125, ** p < 0.01 significant reduction) it was 2.408 ± 0.085. The “time necessary for the cells to reach the confluence” value in data set [11] (side control experiment, ETA and ethanolamine salts > traumatic acid) is given as “reduce the time normally necessary for the cells to reach the confluence”. The solubility was above 10000 µg/mL in [1] (ethanol, organic solvent or mixture) and above 10000 µg/mL in data set [1] (water).

For the origin of these results see US5567716A, “Trans and cis traumatic acid salts having cicatrizant activity associated to bacteriostatic, antiviral, antibiotic or antifungal activity” (priority 1992, dated 1996).
